Test results as given in ChEMBL document CHEMBL4422645, “Benzimidazole tethered pyrrolo[3,4-b]quinoline with broad-spectrum activity against fungal pathogens” (Bioorg Med Chem Lett, 2019).
In brackets after ≈: the same amount, converted by molar mass.

Key:
Candida albicans [1] = test: Antifungal activity against Candida albicans after 24 hrs by microbroth dilution method; assay type: functional
Cryptococcus neoformans [2] = test: Antifungal activity against Cryptococcus neoformans NR-41291 after 24 hrs by microbroth dilution method; assay type: functional; settings: NR-41291, 24 h
Cryptococcus neoformans [3] = test: Antifungal activity against Cryptococcus neoformans NR-41299 after 24 hrs by microbroth dilution method; assay type: functional; settings: NR-41299, 24 h
Cryptococcus neoformans [4] = test: Antifungal activity against Cryptococcus neoformans NR-41298 after 24 hrs by microbroth dilution method; assay type: functional; settings: NR-41298, 24 h
Cryptococcus neoformans [5] = test: Antifungal activity against Cryptococcus neoformans NR-41292 after 24 hrs by microbroth dilution method; assay type: functional; settings: NR-41292, 24 h
Cryptococcus neoformans [6] = test: Antifungal activity against Cryptococcus neoformans NR-41294 after 24 hrs by microbroth dilution method; assay type: functional; settings: NR-41294, 24 h
Candida albicans [7] = test: Antifungal activity against Candida albicans NR-29434 after 24 hrs by microbroth dilution method; assay type: functional; settings: NR-29434, 24 h
Candida albicans [8] = test: Antifungal activity against Candida albicans NR-29367 after 24 hrs by microbroth dilution method; assay type: functional; settings: NR-29367, 24 h
Candida albicans [9] = test: Antifungal activity against Candida albicans ATCC 10231 after 24 hrs by microbroth dilution method; assay type: functional; settings: ATCC 10231, 24 h
Candida albicans [10] = test: Antibiofilm activity against 48 hrs old pre-formed biofilms of Candida albicans ATCC 10231 at 128 ug/ml after 24 hrs by MTS assay relative to control; assay type: functional
Cryptococcus neoformans [11] = test: Antifungal activity against Cryptococcus neoformans NR-41297 after 24 hrs by microbroth dilution method; assay type: functional; settings: NR-41297, 24 h
Candida albicans [12] = test: Antibiofilm activity against 48 hrs old pre-formed biofilms of Candida albicans ATCC 10231 at 16 ug/ml after 24 hrs by MTS assay relative to control; assay type: functional
Candida albicans [13] = test: Antifungal activity against Candida albicans NR-29440 after 24 hrs by microbroth dilution method; assay type: functional; settings: NR-29440, 24 h
Candida albicans [14] = test: Antifungal activity against Candida albicans NR-29449 after 24 hrs by microbroth dilution method; assay type: functional; settings: NR-29449, 24 h
Candida albicans [15] = test: Antifungal activity against Candida albicans NR-29442 after 24 hrs by microbroth dilution method; assay type: functional; settings: NR-29442, 24 h
Candida albicans [16] = test: Antifungal activity against Candida albicans NR-29441 after 24 hrs by microbroth dilution method; assay type: functional; settings: NR-29441, 24 h
Candida parapsilosis = test: Antifungal activity against Candida parapsilosis ATCC 22019 after 24 hrs by microbroth dilution method; assay type: functional; settings: Lodderomyces parapsilosis, ATCC 22019, 24 h
Cryptococcus neoformans [17] = test: Antifungal activity against Cryptococcus neoformans NR-41295 after 24 hrs by microbroth dilution method; assay type: functional; settings: NR-41295, 24 h
HCT-116 [18] = test: Cytotoxicity against human HCT116 cells assessed as reduction in cell viability up to 4 ug/ml after 24 hrs by MTS assay; assay type: cell-based; settings: hct-116, 24 h
Candida albicans [19] = test: Antifungal activity against Candida albicans NR-29444 after 24 hrs by microbroth dilution method; assay type: functional; settings: NR-29444, 24 h
Candida albicans [20] = test: Antifungal activity against Candida albicans NR-29448 after 24 hrs by microbroth dilution method; assay type: functional; settings: NR-29448, 24 h
HCT-116 [21] = test: Cytotoxicity against human HCT116 cells assessed as reduction in cell viability at 32 to 128 ug/ml after 24 hrs by MTS assay; assay type: cell-based; settings: hct-116, 24 h
Candida albicans [22] = test: Antifungal activity against Candida albicans NR-29437 after 24 hrs by microbroth dilution method; assay type: functional; settings: NR-29437, 24 h
Candida albicans [23] = test: Antifungal activity against Candida albicans NR-29435 after 24 hrs by microbroth dilution method; assay type: functional; settings: NR-29435, 24 h
Candida albicans [24] = test: Antifungal activity against Candida albicans NR-29439 after 24 hrs by microbroth dilution method; assay type: functional; settings: NR-29439, 24 h
Candida albicans [25] = test: Antifungal activity against Candida albicans NR-29438 after 24 hrs by microbroth dilution method; assay type: functional; settings: NR-29438, 24 h
Candida albicans [26] = test: Antifungal activity against Candida albicans NR-29366 after 24 hrs by microbroth dilution method; assay type: functional; settings: NR-29366, 24 h
Candida albicans [27] = test: Antibiofilm activity against 48 hrs old pre-formed biofilms of Candida albicans ATCC 10231 at 32 ug/ml after 24 hrs by MTS assay relative to control; assay type: functional
Cryptococcus neoformans [28] = test: Antifungal activity against Cryptococcus neoformans NR-41296 after 24 hrs by microbroth dilution method; assay type: functional; settings: NR-41296, 24 h
Candida albicans [29] = test: Antifungal activity against Candida albicans NR-29446 after 24 hrs by microbroth dilution method; assay type: functional; settings: NR-29446, 24 h
Nakaseomyces glabratus = test: Antifungal activity against Candida glabrata ATCC 90030 after 24 hrs by microbroth dilution method; assay type: functional; settings: ATCC 90030, 24 h
Candida albicans [30] = test: Antifungal activity against Candida albicans […] after 24 hrs by microbroth dilution method; assay type: functional

Molecule `COc1ccc2nc3c(cc2c1)Cn1c-3nc2ccccc21` has an MIC (Candida albicans [1]) of 16 µg/mL (≈ 55.7 µM).
For `c1ccc2nc3c(cc2c1)Cn1c-3nc2ccccc21`, the MIC (Cryptococcus neoformans [2]) was 1 µg/mL (≈ 3.89 µM), the MIC (Cryptococcus neoformans [3]) was 2 µg/mL (≈ 7.77 µM) and the MIC (Cryptococcus neoformans [4]) was 2 µg/mL (≈ 7.77 µM). It also gave an MIC (Cryptococcus neoformans [5]) of 0.5 µg/mL (≈ 1.94 µM), an MIC (Cryptococcus neoformans [6]) of 1 µg/mL (≈ 3.89 µM) and an MIC (Candida albicans [7]) of 0.25 µg/mL (≈ 0.972 µM). The MIC (Candida albicans [8]) was 0.5 µg/mL (≈ 1.94 µM), the MIC (Candida albicans [1]) was 0.5 µg/mL (≈ 1.94 µM) and the MIC (Candida albicans [9]) was 0.5 µg/mL (≈ 1.94 µM). It also gave an Activity (Candida albicans [10]) of 60%, an MIC (Cryptococcus neoformans [11]) of 0.5 µg/mL (≈ 1.94 µM) and an Activity (Candida albicans [12]) of 25%. It also gave an MIC (Candida albicans [13]) of 0.5 µg/mL (≈ 1.94 µM), an MIC (Candida albicans [14]) of 0.0625 µg/mL (≈ 0.243 µM) and an MIC (Candida albicans [15]) of 0.5 µg/mL (≈ 1.94 µM). The MIC (Candida albicans [16]) was 0.5 µg/mL (≈ 1.94 µM), the MIC (Candida parapsilosis) was 1 µg/mL (≈ 3.89 µM) and the MIC (Cryptococcus neoformans [17]) was 2 µg/mL (≈ 7.77 µM). For the same molecule, the Activity (HCT-116 [18]) was “Non-Toxic”, the MIC (Candida albicans [19]) was 0.25 µg/mL (≈ 0.972 µM) and the MIC (Candida albicans [20]) was 0.25 µg/mL (≈ 0.972 µM). The Activity (HCT-116 [21]) was 25%, the MIC (Candida albicans [22]) was 0.0625 µg/mL (≈ 0.243 µM) and the MIC (Candida albicans [23]) was 0.5 µg/mL (≈ 1.94 µM). The MIC (Candida albicans [24]) was 0.5 µg/mL (≈ 1.94 µM), the MIC (Candida albicans [25]) was 0.25 µg/mL (≈ 0.972 µM) and the MIC (Candida albicans [26]) was 0.5 µg/mL (≈ 1.94 µM). It also gave an Activity (Candida albicans [27]) of 40%, an MIC (Cryptococcus neoformans [28]) of 1 µg/mL (≈ 3.89 µM) and an MIC (Candida albicans [29]) of 0.5 µg/mL (≈ 1.94 µM). It also gave an MIC (Nakaseomyces glabratus) of 1 µg/mL (≈ 3.89 µM) and an MIC (Candida albicans [30]) of 0.0625 µg/mL (≈ 0.243 µM).
`Cc1ccc2nc3c(cc2c1)Cn1c-3nc2ccccc21` showed an MIC (Candida albicans [1]) of 32 µg/mL (≈ 118 µM).
`COc1ccc2cc3c(nc2c1)-c1nc2ccccc2n1C3` was tested, and the MIC (Candida albicans [1]) was > 64 µg/mL.
With `Clc1cccc2cc3c(nc12)-c1nc2ccccc2n1C3` the MIC (Candida albicans [1]) was 64 µg/mL (≈ 219 µM).
Molecule `COc1cccc2cc3c(nc12)-c1nc2ccccc2n1C3` has an MIC (Candida albicans [1]) of 64 µg/mL (≈ 223 µM).
`Cc1cccc2cc3c(nc12)-c1nc2ccccc2n1C3` gave an MIC (Candida albicans [1]) of 16 µg/mL (≈ 59 µM).
`Cc1ccc2cc3c(nc2c1)-c1nc2ccccc2n1C3` showed an MIC (Candida albicans [1]) of 32 µg/mL (≈ 118 µM).
`Brc1cccc2cc3c(nc12)-c1nc2ccccc2n1C3` was tested, and the MIC (Candida albicans [1]) was > 64 µg/mL.
In the case of `OC(Cn1cncn1)(Cn1cncn1)c1ccc(F)cc1F` [FLUCONAZOLE], the MIC (Cryptococcus neoformans [2]) was 1 µg/mL (≈ 3.27 µM), the MIC (Cryptococcus neoformans [3]) was 2 µg/mL (≈ 6.53 µM) and the MIC (Cryptococcus neoformans [4]) was 4 µg/mL (≈ 13.1 µM). It also gave an MIC (Cryptococcus neoformans [5]) of 1 µg/mL (≈ 3.27 µM), an MIC (Cryptococcus neoformans [6]) of 2 µg/mL (≈ 6.53 µM) and an MIC (Candida albicans [7]) of 0.5 µg/mL (≈ 1.63 µM). The MIC (Candida albicans [8]) was > 64 µg/mL, the MIC (Candida albicans [9]) was 1 µg/mL (≈ 3.27 µM) and the Activity (Candida albicans [10]) was 40%. The MIC (Cryptococcus neoformans [11]) was 0.5 µg/mL (≈ 1.63 µM), the Activity (Candida albicans [12]) was 25% and the MIC (Candida albicans [13]) was 2 µg/mL (≈ 6.53 µM). The MIC (Candida albicans [14]) was 0.5 µg/mL (≈ 1.63 µM), the MIC (Candida albicans [15]) was 16 µg/mL (≈ 52.2 µM) and the MIC (Candida albicans [16]) was 4 µg/mL (≈ 13.1 µM). For the same molecule, the MIC (Candida parapsilosis) was 0.25 µg/mL (≈ 0.816 µM), the MIC (Cryptococcus neoformans [17]) was 2 µg/mL (≈ 6.53 µM) and the MIC (Candida albicans [19]) was 2 µg/mL (≈ 6.53 µM). For the same molecule, the MIC (Candida albicans [20]) was > 64 µg/mL, the MIC (Candida albicans [22]) was 2 µg/mL (≈ 6.53 µM) and the MIC (Candida albicans [23]) was 0.25 µg/mL (≈ 0.816 µM). For the same molecule, the MIC (Candida albicans [24]) was > 64 µg/mL, the MIC (Candida albicans [25]) was 0.5 µg/mL (≈ 1.63 µM) and the MIC (Candida albicans [26]) was > 64 µg/mL. For the same molecule, the MIC (Cryptococcus neoformans [28]) was 1 µg/mL (≈ 3.27 µM), the MIC (Candida albicans [29]) was > 64 µg/mL and the MIC (Nakaseomyces glabratus) was 1 µg/mL (≈ 3.27 µM). It also gave an MIC (Candida albicans [30]) of 2 µg/mL (≈ 6.53 µM).
